Assay results as given in PubChem BioAssay AID200 (DTP/NCI, 2004).
Values joined by “and” are separate entries in the source; they are usually repeats but may differ in a detail not shown here. Equal entries are not always repeated. Toxic doses and inconclusive results are not listed.

Test system: B6C3F1 mice, B16 melanoma ip, median survival T/C
Experiment: NCI In Vivo Anticancer Drug Screen. Data for tumor model B16 Melanoma (intraperitoneal) in B6C3F1 mice
Conditions: endpoint: median survival time, higher = longer survival
How it was run: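 Mice bearing transplanted tumor were dosed with compound or vehicle, and survival was recorded. Activity is expressed as the treated-group measurement (T) divided by the vehicle control measurement (C).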

[1] = dose: 25.0 mg/kg/injection, schedule: Q01DX009 (ip), vehicle: saline with Tween-80
[2] = dose: 50.0 mg/kg/injection, schedule: Q01DX009 (ip), vehicle: saline with Tween-80
[3] = dose: 100.0 mg/kg/injection, schedule: Q01DX009 (ip), vehicle: saline with Tween-80
[4] = dose: 200.0 mg/kg/injection, schedule: Q01DX009 (ip), vehicle: saline with Tween-80
[5] = dose: 400.0 mg/kg/injection, schedule: Q01DX009 (ip), vehicle: saline with Tween-80
[6] = dose: 6.25 mg/kg/injection, schedule: Q01DX009 (ip), vehicle: Klucel (hydroxypropylcellulose) (HPC)
[7] = dose: 25.0 mg/kg/injection, schedule: Q01DX009 (ip), vehicle: saline
[8] = dose: 50.0 mg/kg/injection, schedule: Q01DX009 (ip), vehicle: saline
[9] = dose: 12.5 mg/kg/injection, schedule: Q01DX009 (ip), vehicle: saline with Tween-80
[10] = dose: 12.5 mg/kg/injection, schedule: Q01DX009 (ip), vehicle: saline

In the case of `O=NN(CCCl)C(=O)NCCCl`, the T/C (dose: 1.5 mg/kg/injection, schedule: Q01DX009 (ip), vehicle: alcohol) is reported as 112 % of control and 118 % of control, the T/C (dose: 1.5 mg/kg/injection, schedule: Q01DX009 (ip), vehicle: other) is reported as 108 % of control and the T/C (dose: 3.0 mg/kg/injection, schedule: Q01DX009 (ip), vehicle: other) is reported as 116 % of control. For the same molecule, the T/C (dose: 5.0 mg/kg/injection, schedule: Q01DX005 (iv), vehicle: saline + alcohol) was 107 % of control, the T/C (dose: 6.0 mg/kg/injection, schedule: Q01DX009 (ip), vehicle: alcohol) was 184 % of control and the T/C (dose: 6.0 mg/kg/injection, schedule: Q01DX009 (ip), vehicle: other) was 154 % of control. For the same molecule, the T/C (dose: 10.0 mg/kg/injection, schedule: Q01DX001 (ip), vehicle: saline + alcohol) was 120 % of control, the T/C (dose: 10.0 mg/kg/injection, schedule: Q01DX001 (ip), vehicle: saline) was 111 % of control and 120 % of control and the T/C (dose: 10.0 mg/kg/injection, schedule: Q01DX001 (iv), vehicle: saline + alcohol) was 104 % of control. For the same molecule, the T/C (dose: 10.0 mg/kg/injection, schedule: Q01DX005 (iv), vehicle: saline + alcohol) was 124 % of control, the T/C (dose: 12.0 mg/kg/injection, schedule: Q01DX009 (ip), vehicle: other) was 110 % of control and the T/C (dose: 20.0 mg/kg/injection, schedule: Q01DX001 (ip), vehicle: saline + alcohol) was 154 % of control. For the same molecule, the T/C (dose: 30.0 mg/kg/injection, schedule: Q01DX001 (ip), vehicle: saline) was 156 % of control, the T/C (dose: 40.0 mg/kg/injection, schedule: Q01DX001 (ip), vehicle: saline + alcohol) was 175 % of control and the T/C (dose: 40.0 mg/kg/injection, schedule: Q01DX001 (iv), vehicle: saline + alcohol) was 185 % of control.
`COc1ccc2c3c1OC1C(=O)CCC4C(C2)N(C)CCC314` (stereo not drawn) was tested, and the T/C (dose: 31.0 mg/kg/injection, schedule: Q01DX009 (ip), vehicle: saline) was 99 % of control.
`CC1(C)OCC2OC=CC(=O)C2O1` (stereo not drawn) was tested, and the T/C [1] was 102 % of control, the T/C [2] was 100 % of control and the T/C [3] was 97 % of control. The T/C [4] was 105 % of control and the T/C [5] was 95 % of control.
In the case of `COC1CC2C=C(C)/C=C/C=C/C(=O)NC(c3ccccc3)C/C=C/CCC(O)CC(=O)C2=C1O` (stereo not drawn), the T/C (dose: 1.5 mg/kg/injection, schedule: Q01DX009 (ip), vehicle: Klucel (hydroxypropylcellulose) (HPC)) is reported as 108 % of control, the T/C (dose: 3.0 mg/kg/injection, schedule: Q01DX009 (ip), vehicle: Klucel (hydroxypropylcellulose) (HPC)) is reported as 110 % of control and 119 % of control and 123 % of control and the T/C (dose: 3.13 mg/kg/injection, schedule: Q01DX009 (ip), vehicle: Klucel (hydroxypropylcellulose) (HPC)) is reported as 104 % of control. The T/C [6] was 109 % of control.
For `COc1cccc2c1C(=O)c1c(O)c3c(c(O)c1C2=O)C[C@H](O)C[C@@H]3OC1CC(N)C(O)C(C)O1` (stereo partly drawn), the T/C (dose: 0.75 mg/kg/injection, schedule: Q01DX009 (ip), vehicle: saline) was 150 % of control, the T/C (dose: 0.75 mg/kg/injection, schedule: Q01DX009 (ip), vehicle: water) was 159 % of control and the T/C (dose: 1.5 mg/kg/injection, schedule: Q01DX009 (ip), vehicle: saline) was 184 % of control. For the same molecule, the T/C (dose: 1.5 mg/kg/injection, schedule: Q01DX009 (ip), vehicle: water) was 164 % of control, the T/C (dose: 3.0 mg/kg/injection, schedule: Q01DX009 (ip), vehicle: saline) was 175 % of control and the T/C (dose: 3.0 mg/kg/injection, schedule: Q01DX009 (ip), vehicle: water) was 192 % of control. The T/C (dose: 6.0 mg/kg/injection, schedule: Q01DX009 (ip), vehicle: saline) was 260 % of control, the T/C (dose: 6.0 mg/kg/injection, schedule: Q01DX009 (ip), vehicle: water) was 215 % of control and the T/C (dose: 12.0 mg/kg/injection, schedule: Q01DX009 (ip), vehicle: saline) was 346 % of control. The T/C (dose: 12.0 mg/kg/injection, schedule: Q01DX009 (ip), vehicle: water) was 320 % of control and the T/C (dose: 24.0 mg/kg/injection, schedule: Q01DX009 (ip), vehicle: saline) was 183 % of control.
In the case of `O=C(O)c1cc(Cc2ccc(O)c(C(=O)O)c2)ccc1O` (tested in a mixture with another compound), the T/C [6] is reported as 101 % of control, the T/C (dose: 12.5 mg/kg/injection, schedule: Q01DX009 (ip), vehicle: Klucel (hydroxypropylcellulose) (HPC)) is reported as 105 % of control and the T/C (dose: 25.0 mg/kg/injection, schedule: Q01DX009 (ip), vehicle: Klucel (hydroxypropylcellulose) (HPC)) is reported as 103 % of control. The T/C (dose: 50.0 mg/kg/injection, schedule: Q01DX009 (ip), vehicle: Klucel (hydroxypropylcellulose) (HPC)) was 94 % of control, the T/C (dose: 100.0 mg/kg/injection, schedule: Q01DX009 (ip), vehicle: Klucel (hydroxypropylcellulose) (HPC)) was 90 % of control and the T/C (dose: 200.0 mg/kg/injection, schedule: Q01DX009 (ip), vehicle: Klucel (hydroxypropylcellulose) (HPC)) was 93 % of control.
`NC(=O)c1c[se]c(C2OC(CO)C(O)C2O)n1` (stereo not drawn) was tested, and the T/C (dose: 12.5 mg/kg/injection, schedule: Q01DX009 (ip), vehicle: water) was 109 % of control, the T/C (dose: 25.0 mg/kg/injection, schedule: Q01DX009 (ip), vehicle: water) was 102 % of control and the T/C (dose: 50.0 mg/kg/injection, schedule: Q01DX009 (ip), vehicle: water) was 115 % of control. For the same molecule, the T/C (dose: 100.0 mg/kg/injection, schedule: Q01DX009 (ip), vehicle: water) was 109 % of control.
In the case of `O=C1c2ccccc2C(Cl)(c2ccc(Cl)cc2)c2ccc(Cl)cc21` (stereo not drawn), the T/C [1] is reported as 114 % of control, the T/C (dose: 36.0 mg/kg/injection, schedule: Q01DX009 (ip), vehicle: saline with Tween-80) is reported as 109 % of control and the T/C [2] is reported as 116 % of control and 120 % of control. For the same molecule, the T/C (dose: 60.0 mg/kg/injection, schedule: Q01DX009 (ip), vehicle: saline with Tween-80) was 111 % of control, the T/C [3] was 115 % of control and 107 % of control and the T/C (dose: 166.67 mg/kg/injection, schedule: Q01DX009 (ip), vehicle: saline with Tween-80) was 122 % of control. For the same molecule, the T/C [4] was 117 % of control and the T/C (dose: 277.78 mg/kg/injection, schedule: Q01DX009 (ip), vehicle: saline with Tween-80) was 103 % of control.
With `O=C[C@@H](CO)O[C@H](C=O)c1c[nH]c(=O)[nH]c1=O` the T/C [7] was 105 % of control and the T/C [8] was 110 % of control.
`CC(=O)Nc1ccc(O)c(O)c1` was tested, and the T/C [9] was 109 % of control and 112 % of control, the T/C [1] was 114 % of control and 117 % of control and the T/C [2] was 104 % of control and 105 % of control. The T/C [3] was 113 % of control and 101 % of control, the T/C [4] was 113 % of control and 106 % of control and the T/C [5] was 122 % of control and 106 % of control.
In the case of `C[C@@H]1C[C@@H]([C@H](O)CC2CC(=O)NC(=O)C2)C(=O)[C@@H](C)C1`, the T/C [10] is reported as 105 % of control, the T/C [7] is reported as 111 % of control and the T/C [8] is reported as 106 % of control.
For `NCCCNCCCCNC(=O)C(O)NC(=O)CCCCCCN=C(N)N` (stereo not drawn), the T/C (dose: 6.25 mg/kg/injection, schedule: Q01DX009 (ip), vehicle: saline) was 108 % of control and the T/C [10] was 95 % of control.
`OC1(CSc2ccccc2)CCCCC1` was tested, and the T/C [9] was 90 % of control and 105 % of control, the T/C [1] was 93 % of control and 102 % of control and the T/C [2] was 117 % of control and 95 % of control. For the same molecule, the T/C [3] was 93 % of control and 102 % of control, the T/C [4] was 105 % of control and the T/C [5] was 89 % of control.
